According to US4986982A, “Cosmetic composition” (priority 1988, dated 1991):

Assays:
physchem = details: 100 mm phosphate buffer
Description: (§1) (i) The chosen ester of pyroglutamic acid was dissolved in aqueous buffer of a selected pH value, to provide a 0.1% w/v solution of the ester;
(§2) (ii) Intact (unhydrolysed) ester was analysed by high performance liquid chromatography at regular time intervals.
(§3) (iii) The log of the amount of the ester remaining intact versus time was plotted to give a straight line response.
(§4) (iv) From this plot, the time required for half of the ester of pyroglutamic acid to be hydrolysed (half of the ester remaining intact), can be determined if necessary by extrapolation.
(§5) *Assay performed in 100 mM phosphate buffer at 30° C.

[1] = Stability of esters of pyroglutamic acid in aqueous buffer (half-life of hydrolysis, intact ester by HPLC)
Description: as §1, §2, §3, §4, §5

[2] = Delivery of pyroglutamic acid to the stratum corneum after topical application of tritiated esters to the arms of volunteers (radio-tracer technique); assay type: in vivo, human; details: [3H] pyroglutamic acid applied topically instead of ester
From the text: Accordingly, [^3 H] esters of pyroglutamic acid were each dissolved at 1% w/v in anhydrous ethanol or in an oil-in-water emulsion base. […] The [^3 H] pyroglutamic acid was separated from unchanged ester by chromotography on AG1X8 resin and the amount delivered to the skin expressed as nmoles per mg of stratum corneum protein.

Row | Structure (SMILES) | half-life (physchem; pH 4) [days] | half-life (physchem; pH 7) [days] | other results
1 | CCOC(=O)[C@@H]1CCC(=O)N1 [Pyroglutamic acid ethyl ester, pyroglutamic acid ethyl ester] |  |  | half-life ([1]; 100 mm phosphate buffer, pH 4): 11000 h; half-life ([1]; 100 mm phosphate buffer, pH 7): 58 h; half-life ([1]; aqueous buffer, pH 6.5): 288 h; half-life ([1]; aqueous buffer, pH 6.8): 168 h; half-life ([1]; aqueous buffer, pH 7): 57.6 h; half-life ([1]; aqueous buffer, pH 7.4): 48 h; half-life ([1]; aqueous buffer, pH 7.8): 24 h
2 | CCCCOC(=O)[C@@H]1CCC(=O)N1 [Pyroglutamic acid n-butyl ester, pyroglutamic acid n-butyl ester] | 625 | 3.33 | 
3 | CCCCCCOC(=O)[C@@H]1CCC(=O)N1 [Pyroglutamic acid n-hexyl ester, pyroglutamic acid n-hexyl ester] | 750 | 4 | 
4 | O=C1CCC(C(=O)O)N1 (stereo not shown) [[^3 H] pyroglutamic acid, 2-pyrrolidone-5-carboxylic acid] |  |  | amount of tritiated free acid recovered from the stratum corneum [2]: negligible amount

Further lines, with some results ahead:

Row | half-life (physchem; pH 4) [days] | half-life (physchem; pH 7) [days] | Structure (SMILES) | other results
5 | 70.8 | 0.375 | CCOC(=O)C(C)OC(=O)C1CCC(=O)N1 (stereo not shown) [Ethyl-2-[pyroglutamoyloxy]-n-propionate, ethyl-2-[pyroglutamoyloxy]-n-propionate] | 
6 | 750 | 4 | CCCCCCCCOC(=O)[C@@H]1CCC(=O)N1 [Pyroglutamic acid n-octyl ester, pyroglutamic acid n-octyl ester] | 
